{"source": "patent US8268888B2", "about": "“Therapy of malignant neoplasias” (priority 2005, dated 2012)", "key": {"[1]": {"conditions": "rat, in vivo; cited from earlier work"}, "[2]": {"system": "human tumor cells", "experiment": "Internalisation (uptake) experiments in tumor cells", "assay_type": "cell-based", "experimental": "Uptake experiments were undertaken to evaluate the affinity of the proposed L-phenylalanine derivatives for the proposed human tumors, and to assess their therapeutic activity in vitro. All experiments were performed fourfold, simultaneously with 250000, 500000 and 10^6 freshly prepared human tumor cells, including human malignant glioma cells, pancreatic prostatic and breast cancer cells. Before experiments, subconfluent cells were trypsinized as described above. The suspension was mixed thoroughly, transferred to a 50-ml centrifuge tube (Falcon®, Becton Dickinson, USA). Cells were centrifuged for 5 min at 200×g; the resulting supernatant was removed and the pellet resuspended in serum-free Dulbecco's Mod Eagle medium and then transferred to Eppendorf tubes at concentrations of 10^6 cells/ml for the uptake investigations. Before incubation with the corresponding radiolabeled phenylalanine, the tumor cells were preincubated for 5 min in 500 μL medium at 37° C. in 1.5-ml Eppendorf centrifuge tubes. Aliquots of 30-50 μL (10^6−1.5×10^6 cpm) freshly prepared radiopharmaceutical were added and cells incubated at 37° C./5% CO2 for 1, 2, 5, 15, 30, 60, 90 and 120 min while shaking. Uptake was stopped with 500 μL ice-cold PBS (pH 7.4) and an additional 3-min in an ice bath, the cells were centrifuged for 2 min at 300×g, the supernatant removed and the pellet washed three time with ice-cold PBS. Cell pellets were counted for radioactivity together with 3 aliquots of standards on a Berthold LB951 counter. The percentage of binding of the radiopharmaceutical was calculated by the formula: (cpm cell pellet/mean cpm radioactive standards)×100. The results were expressed either as percent of the applied dose per 10^6 cells or as cpm/1000 cells for better comparison."}, "[3]": {"system": "malignant cell lines", "experiment": "Cell survival rate after treatment with 3/4-iodo-L-phenylalanine (cytotoxic/cytostatic effect)", "assay_type": "cell-based, human", "experimental": "Five human glioma cell lines, one rat glioma cell line, two human prostate cancer cell lines, as well as one human breast cancer cell line, and a melanoma cell line were investigated. The human glioma cell lines Tx 3868 and T 5135 (from primary human glioblastoma multiforme), and the rat C6 glioma cells were provided by the Institute of Human Genetics, University of the Saarland (Homburg, Germany). The human high-grade glioma cells, designated as A1207, M059K and U373MG, the human prostate cancer cells PC3 and […], the pancreatic carcinoma cell line PanC1, the human breast cancer cell line MCF-07 (American Type Culture Collection, Rockville, Md.), and the pancreatic carcinoma cell line PaCa44 (established by Dr Bulow, Mainz, Germany) as well as the melanoma cell lines SK-MEL25 and A101D were purchased commercially or provided by the oncological research laboratory of the University Medical Center of Saarland (Homburg, Germany). […]\nHuman tumor cells grown on standard glass slides were fixed in 4% neutral buffered formalin and stained with the Giemsa method. The cell number was calculated in 10 consecutive high power fields (×40)."}, "[4]": {"system": "human Tx3868 glioblastoma cells", "experiment": "Radiosensitizing effect: IPA combined with external irradiation in glioblastoma cells", "assay_type": "cell-based", "conditions": "for radiosensitizer effect: concomitantly administered therapeutic radiation", "experimental": "Five human glioma cell lines, one rat glioma cell line, two human prostate cancer cell lines, as well as one human breast cancer cell line, and a melanoma cell line were investigated. The human glioma cell lines Tx 3868 and T 5135 (from primary human glioblastoma multiforme), and the rat C6 glioma cells were provided by the Institute of Human Genetics, University of the Saarland (Homburg, Germany). The human high-grade glioma cells, designated as A1207, M059K and U373MG, the human prostate cancer cells PC3 and […], the pancreatic carcinoma cell line PanC1, the human breast cancer cell line MCF-07 (American Type Culture Collection, Rockville, Md.), and the pancreatic carcinoma cell line PaCa44 (established by Dr Bulow, Mainz, Germany) as well as the melanoma cell lines SK-MEL25 and A101D were purchased commercially or provided by the oncological research laboratory of the University Medical Center of Saarland (Homburg, Germany). Cells were cultivated in RPMI-1640 medium or in Dulbecco's modified Eagle medium (sodium pyruvate-free, supplemented with […] and pyridoxine), respectively, supplemented with 10% (v/v) heat-inactivated foetal calf serum (FCS), penicillin (50 U/ml), streptomycin (50 μg/ml), and insulin (50 μg/ml; PromoCell, Heidelberg, Germany). All cell lines were maintained in appropriate flasks in a humidified incubator (5% CO2) at 37° C. Before the experiment, subconfluent cell cultures were trypsinized with a solution of 0.05% trypsin containing 0.02% EDTA but without Ca^2+ and Mg^2+, and resuspended in fresh medium to various cell concentrations after counting by vital staining on a hemocytometer, depending upon the study. Cells were free of mycoplasms. Viability of the cells was >95%.\nEvaluation of the cell survival rate after treatment with 3/4-iodo-L-phenylalanine. After development of a confluent lawn of cells, the cultures were exposed to 0.1-5 μmol/ml of the corresponding pharmaceutical for up to 48 hours at 37° C./5% CO2. In a parallel experiment, cells were irradiated using a 6-MeV linear accelerator with doses from 2 to 15 Gy or treated with IPA-131 for comparison of cell survival rate. In order to be able to observe the morphology of the glioma cells, the cells were grown on standard glass slides or in standard culture dishes. Then the medium was removed and the cells were fixed either in 70% ethanol for at least 30 min on ice for flow-cytometric analyses after staining or in 4% neutral buffered formalin for immunohistopathological analyse."}, "[5]": {"conditions": "rats, cited from earlier work"}, "[6]": {"experiment": "Acute toxicity (LD50/LD10) in rats", "conditions": "i.p. injection"}, "[7]": {"system": "human A1207 and T3868 glioblastoma xenografts", "experiment": "Intracranial human glioma model in RNU rats (survival)", "assay_type": "in vivo", "conditions": "daily in first week then weekly, n=9", "experimental": "An in vivo experiment was carried out in an intracranial human glioma model in RNU rats to assess the therapeutic effectiveness of 4-Iodo-L-phenylalanine (IPA) in glioma.\nPrimary human A1207 and T3868 glioblastoma cells (0.5×10^6 cells) were stereotaxically implanted into the right frontal region of RNU rats (2 mm posterior and 2 mm lateral to the intersection of the sagittal and bregma sutures to a depth of 5 mm) while under chloralhydrate anesthesia. The craniectomy was resealed with bone wax and the scalp closed.\nIPA (1 and 5 mg/kg b.w.) was administrated i.p. in rats bearing human glioblastoma xenografts (n=9 in each group), starting at day 1 after stereotaxic implantation.\nIPA was administrated daily in the first week after implantation and weekly afterwards. Another six RNU rats were treated with saline and served as control.\nThen the following parameters were compared: median survival time, tumor size and histology after biopsy."}, "[8]": {"system": "malignant gliomas", "conditions": "cited from earlier work"}}, "note": "Like-named read-outs stand apart in the source and are kept apart here."}
{"smiles": "N[C@@H](Cc1ccc(Cl)cc1)C(=O)O", "note": "(racemic) [p-chloro-phenylalanine]", "values": [{"measurement": "effect on growth of developing rats", "setting": "[1]", "result": "interferes with the growth of developing rats"}]}
{"smiles": "N[C@@H](Cc1ccccc1I)C(=O)O", "note": "[2-iodo-L-phenylalanine, reference compound]", "values": [{"measurement": "uptake in neoplastic cells", "setting": "[2]; compared with IPA and IMA", "result": "low uptake"}, {"measurement": "cytotoxicity in neoplastic cells", "setting": "[3]; compared with IPA and IMA", "result": "moderate cytotoxity"}]}
{"smiles": "N[C@@H](Cc1cccc(I)c1)C(=O)O", "note": "[3-iodo-L-phenylalanine]", "values": [{"measurement": "radiosensitizer effect", "setting": "[4]", "result": "significant intrinsic radiosensitizer effect"}]}
{"smiles": "N[C@@H](Cc1ccc(I)cc1)C(=O)O", "note": "[IPA, 4-iodo-L-phenylalanine]", "values": [{"measurement": "LD50", "setting": "[5]; route not stated", "result": "> 100", "unit": "mg/kg"}, {"measurement": "uptake in human tumor cells", "setting": "[2]; quantified with 4-[123I]iodo-L-phenylalanine, up to 120 min, FIGS. 1-3", "result": "high uptake"}, {"measurement": "concentration up to which transport capacity did not show saturation", "setting": "[2]; tumor cells", "result": "> 200", "unit": "µmol/L"}, {"measurement": "LD10", "setting": "[6]", "result": "> 27", "unit": "mg/kg"}, {"measurement": "rats still alive at day 28", "setting": "[7]; IPA 1 mg/kg i.p.", "result": "six out of nine"}, {"measurement": "rats still alive at day 28", "setting": "[7]; IPA 5 mg/kg i.p.", "result": "seven out of nine"}, {"measurement": "induction of necrosis/apoptosis", "setting": "[4]; 0.3 μmol/ml IPA with 10 Gy external radiation, FIG. 7b", "result": "increased induction of necrosis and additional induction of apoptosis"}, {"measurement": "radiosensitizer effect", "setting": "[4]", "result": "significant intrinsic radiosensitizer effect"}, {"measurement": "cell survival rate on combining with external irradiation", "setting": "[4]; glioma cells, FIGS. 4-6", "result": "dramatic reduction of cell survival rate"}, {"measurement": "cytostatic effect on primary human glioblastoma cells", "setting": "[3]; FIG. 4, compared with external irradiation", "result": "concentration dependent and more pronounced as compared to external irradiation up to 15 Gy"}]}
{"smiles": "N[C@@H](Cc1ccc([123I])cc1)C(=O)O", "note": "[IPA-123, 4-[^123I]iodo-L-phenylalanine]", "values": [{"measurement": "blood-brain barrier passage", "setting": "[8]; after intravenous administration", "result": "crosses"}, {"measurement": "enrichment in certain tumors (factor)", "setting": "[8]; certain tumors", "result": "≥ 20"}]}
{"smiles": "N[C@@H](Cc1ccccc1)C(=O)O", "note": "[L-phenylalanine, reference compound]", "values": [{"measurement": "LD50", "setting": "[5]; i.p. injection, according to the manufacturer", "result": 5280, "unit": "mg/kg"}]}
